Measured values published in patent publication US7569554B2, “Synergistic treatment of cancer using immunomers in conjunction with therapeutic agents” (Idera Pharmaceuticals, Inc., priority 2003, dated 2009).

How the values were obtained:
4T1 mammary carcinoma = assay: Rechallenge of long term survivors with 4T1; assay type: in vivo, mouse; conditions: FIG. 20C
Description: (§1) Long term survivors (n=5) of IMO compound treated mice with CT26.WT or CT26.CL25 peritoneal tumor were rechallenged i.p. or i.v. with 5×10^5 of the parental tumor cells without any further treatment. To evaluate the specificity of the IMO induced antitumor response in tumor bearing mice, these long term survivors (n=5) were also rechallenged with syngeneic, non-organ-related mammary tumor 4T1 (5×10^5). For i.v. rechallenged groups, mice were sacrificed on day 13, lungs were harvested and lung metastases were counted.

CD69+ and CD86+ cells = assay: Activation of CD69+ and CD86+ cells in peripheral blood; assay type: in vivo, mouse; conditions: docetaxel 30 mg/kg days 1 and 3, IMO 2 5 mg/kg days 1, 3, 5, 7; FIG. 24C
CT26.WT = assay: Peritoneal disseminated CT26.WT tumor, survival; assay type: in vivo, mouse; conditions: peritoneal administration, 1 mg/kg; FIG. 17B
Description: (§2) For peritoneal disseminated tumor model, 3×10^5 CT26.WT or CT26.CL25 cells and 5×10^4 B16.F0 cells were injected i.p to BALB/c or C57BL/6 mice respectively. […] Mice were checked daily for tumor growth and for survival. Each dose group had 6 to 10 mice.

CT26.CL25 tumor cells = assay: Adoptive transfer of splenocytes, CT26.CL25 challenge; assay type: in vivo, mouse; conditions: FIG. 21A
Description: (§3) To study adoptive immune cell transfer, BALB/c mice were adoptively i.p. transferred with 5×10^6 of syngeneic splenocytes either from naïve BALB/c mice or from IMO treated long term survivors bearing CT26.WT or CT26.CL25, the mice (5/group) were then cross challenged i.p. with 3×10^5 CT26.WT, CT26.CL25 or 4T1 cells on day 3.

[1] = system: CT26.WT and CT26.CL25 tumors; assay: Rechallenge of long term survivors with CT26.WT or CT26.CL25; assay type: in vivo, mouse
Description: as §1

[2] = Total serum IgG1 and IgG2a in B16.F0 tumor bearing C57BL/6 mice; assay type: in vivo, mouse; conditions: compared with control non-CpG DNA
Description: For the analysis of serum antibodies, 96 well plates were incubated at room temperature for 3 hours with β-gal protein (Calbiochem Novabiochem, Pasadena, Calif.) at 2 μg/ml in phosphate buffered saline (PBS). The solid phase was incubated overnight at 4° C. with normal mouse serum (NMS) or antiserum, or β-gal specific monoclonal Ab (Calbiochem Novabiochem, Pasadena, Calif.) followed by an incubation with horseradish peroxidase (HRP)-conjugated antibodies specific for mouse IgG (H+L). For isotype analysis, HRP-labelled goat anti-mouse IgG1 and IgG2a (Southern Biotechnology, Birmingham, Ala.) were used. The binding of antibodies was measured as absorbance at 405 nm after reaction of the immune complexes with ABTS substrate (Zymed, San Francisco, Calif.).

[3] = In vitro cytokine induction profiles of IMO compounds (FIG. 16); assay type: cell-based
BALB/c mice = assay: In vivo serum cytokine induction; set-up: species or system mouse
Description: To assess serum cytokine levels, BALB/c mice (n=5) were injected intraperitoneally (i.p), subcutaneously (s.c) or intramuscularly (i.m) with IMO compounds at 10 mg/kg (single dose). Sera was collected by retro-orbital bleeding at 4 hrs of IMO administration and determined IL-112 and IL-6 by sandwich ELISA. Cytokine antibodies and standards were purchased from PharMingen (San Diego, Calif.).
To evaluate the immunopharmacological effects in vivo, IMO compounds, CpG immunomers, and non-CpG oligos were administered to BALB/c mice i.p, s.c or i.m at a dose of 10 mg/kg and their serum was evaluated for IL-12 and IL-6 after 4 hrs.

4T1 breast tumor = 4T1 breast tumor in BALB/c mice, combination with doxorubicin; assay type: in vivo, mouse; conditions: IMO 2 1 mg/kg peritumoral, doxorubicin 30 mg/kg i.p; FIG. 24A
Description: For the 4T1 tumor models, 5×10^5 cells/mouse in. 100 μl PBS were implanted into BALB/c mice in the lower right flank. On day 5 when the average tumor size reached 50 mm^2, the mice were given i.p injections of 30 mg/kg doxorubicin (Bedford lab, Bedford, Ohio) for three times on days 5, 6 and 7. IMO 2 (1 mg/kg) dissolved in 100 μl PBS was administrated by peritumoral injection at twice a week interval for a total of six times.

B16.F0 melanoma [4] = assay: Subcutaneous B16.F0 melanoma in C57BL/6 mice; assay type: in vivo, mouse; conditions: 1 mg/kg peritumoral every other day for 10 times from day 8; FIG. 22A
Description: (§4) For subcutaneous solid tumor models, 10^6 CT26.CL25 cells/mouse or 5×10^5 B16.F0 cells/mouse in 100 μl of PBS were implanted into BALB/c or C57BL/6 mice in the lower right flank. The tumor size reached to 50 to 200 mg on day 6 for CT26.CL25 and on day 8 for B16.F0 post tumor inoculation. The tumor bearing mice were then treated with peritumoral injection of IMO compounds or non-CpG DNA control at a dose of 1 mg/kg every other day for 10 times. Tumor growth was recorded with the use of calipers, by measuring the long and short diameters of the tumor. Tumor volumes were measured with a caliper and the formula (0.5×length×width^2) was applied to determine tumor growth kinetics.
IMO 2 was further tested for its antitumor activity in mice bearing B 16.F0 murine melanoma. C57BL/6 mice bearing B16.F0 melanoma were treated with 1 mg/kg IMO 2 by peritumoral administration every other day for 10 times starting on day 8 following tumor inoculation.

B16.F0 melanoma [5] = assay: B16.F0 melanoma in wt, IL-6 ko and IL-12 ko C57BL/6 mice; assay type: in vivo, mouse; conditions: FIG. 23
Description: Female BALB/c (H-2^d), C57BL/6, and IL-6 and IL-12 knockout (ko) (both ko on a C57BL/6 background) mice 5-8 weeks of age, were purchased from Jackson Laboratory (Bar Harbor, Me.). CT26.WT (ATCC, Rockville, Md.) is a carcinogen-induced BALB/c undifferentiated colon carcinoma. CT26.CL25 (ATCC, Rockville, Md.) is a subclone of CT26.WT that has been transduced with Escherichia coli β-gal gene. 4T1 is a mammary adenocarcinoma cell line in BALB/c mice. B16.F0 is a C57BL/6 derived melanoma (ATCC). CT26.WT and 4T1 cells were cultured in RPMI 1640, 10% heat-inactivated fetal bovine serum (FBS, Atlas Biologicals, Fort Colins, Colo.), 2 mM L-glutamine, 100 μg/ml streptomycin, 100 U/ml penicillin (Mediatech, Va.). CT26.CL25 is maintained in the same medium plus 400 μg/ml G418 sulfate (Life Technologies, Grand Island, N.Y.). B 16.F0 cells were grown in DMEM containing 10% FBS and antibiotics.
For peritoneal disseminated tumor model, 3×10^5 CT26.WT or CT26.CL25 cells and 5×10^4 B16.F0 cells were injected i.p to BALB/c or C57BL/6 mice respectively. IMO compounds or non-CpG DNA (2.5 mg/kg) were administrated i.p. twice per week starting on day 1 for a total of 5 times. Mice were checked daily for tumor growth and for survival. Each dose group had 6 to 10 mice.

4T1 tumor cells = assay: Adoptive transfer of splenocytes, 4T1 challenge; assay type: in vivo, mouse; conditions: FIG. 21B
Description: as §3

[6] = system: Her-2 overexpressing human breast tumors (BT474); assay: Example 23 tumor model, Rituxan and/or IMO 2; assay type: in vivo, mouse; conditions: Rituxan days 5, 7, 9, 11; IMO 2 days 5, 7, 9, 11, 13; FIG. 30
Description: Nude mice bearing subcutaneously implanted Her-2 overexpressing human breast tumors (BT474). Tumor bearing mice were treated by intraperitoneal injections of Rituxan on days 5, 7, 9 and 11 and/or IMO 2 on days 5, 7, 9, 11 and 13.

CT26.CL25 colon tumor = assay: Subcutaneous CT26.CL25 colon tumor in BALB/c mice; assay type: in vivo, mouse; conditions: day 24, compared with non-CpG DNA treated mice; 1 mg/kg peritumoral
Description: as §4
The antitumor activity of IMO compounds in a murine colon carcinoma CT26.CL25 model was evaluated. BALB/c mice bearing CT26.CL25 subcutaneous solid tumors were treated with 1 mg/kg IMO compounds by peritumoral administration every other day for 10 times starting on day 6 following tumor inoculation.

CT26.CL25 = assay: Peritoneal disseminated CT26.CL25 tumor, survival; assay type: in vivo, mouse; conditions: peritoneal administration, 1 mg/kg; FIG. 17C
Description: as §2

[7] = system: Her-2 overexpressing human breast tumors (BT474); assay: Her-2 overexpressing human breast tumors (BT474) in nude mice, combination with Herceptin; assay type: in vivo, mouse; conditions: compared to the PBS control group; Herceptin 10 mg/kg i.p, IMO 1 mg/kg peritumoral, twice a week for 6 weeks; FIG. 29
[8] = Intramuscular (i.m), 10 mg/kg, 4 hrs
[9] = Intraperitoneal (i.p), 10 mg/kg, 4 hrs
[10] = Subcutaneous (s.c), 10 mg/kg, 4 hrs

IMO 2: IMO compound of FIG. 15 (SEQ ID NO 24) containing a synthetic CpR motif, mouse-specific immunostimulatory motif (DNA TCTGACNTTCT; synthetic CpR motif, chemistry not fully specified)
Protection against 4T1 mammary carcinoma challenge (4T1 mammary carcinoma): not protected | Percentage of CD69+ and CD86+ cells (CD69+ and CD86+ cells): significant increase in the percentage of CD69+ and CD86+cells | Mice survival (CT26.WT): marked increase of mice survival | Protection by transferred splenocytes against CT26.CL25 challenge (CT26.CL25 tumor cells): protective against a lethal tumor challenge | Rejection of pulmonary metastases after i.v. inoculation ([1]; data not shown): able to reject pulmonary metastases of the same tumor | Protection against i.p rechallenge ([1]; mice cleared of CT26.CL25 peritoneal tumor, FIGS. 20A and B): rejected i.p rechallenge with CT26.WT and CT26.CL25 tumors | Total IgG1 levels ([2]; FIG. 22B): decrease or no change | Total circulating serum IgG2a ([2]; FIG. 22C): significant increase | IL-6 production in vitro [3]: lower IL-6 production | IL-12 secretion in vitro [3]: strong IL-12 secretion | Serum IL-6 induction (BALB/c mice; 10 mg/kg, all three routes of administration, 4 hrs): significantly lower serum IL-6 | Serum IL-12 secretion in mice (BALB/c mice; 4 hr after administration, FIG. 25B): induced IL-12 secretion | IL-6 (serum) (BALB/c mice; [8]): 1.2 ± 0.1 ng/mL | IL-12 (serum) (BALB/c mice; [8]): 87.9 ± 3.2 ng/mL | IL-6 (serum) (BALB/c mice; [9]): 2.5 ± 0.2 ng/mL | IL-12 (serum) (BALB/c mice; [9]): 51.7 ± 0.9 ng/mL | IL-6 (serum) (BALB/c mice; [10]): 2.3 ± 0.4 ng/mL | IL-12 (serum) (BALB/c mice; [10]): 136.9 ± 17 ng/mL | Inhibition of 4T1 tumor growth (4T1 breast tumor): strong inhibition | Tumor growth inhibition (B16.F0 melanoma [4]): 71% | Tumor growth (B16.F0 melanoma [5]; IL-6 ko C57BL/6 mice): significant reduction in tumor growth | Tumor growth (B16.F0 melanoma [5]; wt C57BL/6 mice): significant reduction in tumor growth | Protection by transferred splenocytes against 4T1 challenge (4T1 tumor cells): did not extend to 4T1 tumor cell challenge | Tumor growth [6]: significantly inhibited | Average tumor growth inhibition (CT26.CL25 colon tumor): 85% | Mice survival (CT26.CL25): marked increase of mice survival | Tumor growth inhibition [7]: 65%
